Measured values taken from ChEMBL document CHEMBL5728856, “Anilinopyrimidines as haematopoietic progenitor kinase 1 (HPK1) inhibitors” (2021).

Target: Mitogen-activated protein kinase kinase kinase kinase 1 (Homo sapiens, UniProt Q92918)
Test: Enzymatic Activity Assay: The enzymatic activity of Wild Type HPK1 (MAP4K1) Kinase was measured in the presence or absence of an inhibitor compound of the present disclosure by preparation of a reaction mixture containing a fluorescein tagged peptide (2 micromolar final concentration), ATP (Adenosine Triphosphate, 500 micromolar final concentration) and Wild Type kinase (6 nM final concentration) in a buffer system comprising 50 mM HEPES (Buffer), 3 mM MgCl2, 5% w/v Trehalose, 0.01% Brij 35 (Detergent), 0.1% Pluronic F127 (Surfactant), 0.1 mM EDTA (Ethylenediaminetetraacetic acid), 0.1 mM EGTA (ethylene glycol-bis(β-aminoethyl ether)-N,N,N′,N′-tetraacetic acid) and 1 mM DTT (Dithiothreitol) and at a pH of 7.4. The reactions were quenched by the addition of EDTA to a final concentration of 25 mM. A Caliper EZ reader was used to measure the extent of substrate to product conversion.The peptide substrate used in the HPK1 assay was designed based on the amino acid sequence surrounding serine residue 376 of SLP76-Lymphocyte cytosolic protein 2 (a known intracellular substrate of HPK1). […]
Assay type: cell-based

Sequence of Mitogen-activated protein kinase kinase kinase kinase 1 (Q92918 whole entry): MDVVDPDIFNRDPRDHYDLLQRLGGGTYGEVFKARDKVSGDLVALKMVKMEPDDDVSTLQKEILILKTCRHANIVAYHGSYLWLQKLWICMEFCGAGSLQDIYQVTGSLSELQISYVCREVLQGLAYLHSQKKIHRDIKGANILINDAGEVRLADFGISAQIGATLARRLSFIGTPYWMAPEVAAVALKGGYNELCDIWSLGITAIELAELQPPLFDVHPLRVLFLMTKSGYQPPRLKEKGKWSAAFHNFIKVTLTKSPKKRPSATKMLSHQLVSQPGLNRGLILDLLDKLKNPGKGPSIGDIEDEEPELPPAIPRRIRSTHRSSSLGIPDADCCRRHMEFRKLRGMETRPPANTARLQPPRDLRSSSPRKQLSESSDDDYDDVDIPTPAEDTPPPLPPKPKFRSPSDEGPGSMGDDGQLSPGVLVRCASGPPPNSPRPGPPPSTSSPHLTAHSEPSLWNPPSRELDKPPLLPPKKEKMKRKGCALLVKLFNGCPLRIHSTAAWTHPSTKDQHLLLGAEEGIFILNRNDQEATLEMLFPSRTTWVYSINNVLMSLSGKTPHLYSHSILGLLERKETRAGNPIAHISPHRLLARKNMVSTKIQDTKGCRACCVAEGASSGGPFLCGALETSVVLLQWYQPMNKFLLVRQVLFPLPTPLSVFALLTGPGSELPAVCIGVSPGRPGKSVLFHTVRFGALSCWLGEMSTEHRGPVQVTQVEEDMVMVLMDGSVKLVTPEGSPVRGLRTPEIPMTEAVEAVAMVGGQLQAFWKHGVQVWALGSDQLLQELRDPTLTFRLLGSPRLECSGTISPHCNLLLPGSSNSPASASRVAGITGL

Compound `CN1CCc2cc(Nc3ncc(Cl)c(Nc4ccccc4P(C)(C)=O)n3)c(Cl)cc2C1` has an IC50 of under 5 nM.
